Structures are written as SMILES. Like-named read-outs stand apart in the source and are kept apart here. Non-standard residues stand in square brackets, D forms with d. Residues, ends and D or L forms follow the SMILES beside them. Sar = CNCC(=O)O

For orientation: Ki means a measure of affinity in units of concentration, obtained from inhibition or displacement.

This test concerns the target T1, furin (Homo sapiens, UniProt P09958).
T1 construct: made in house; host or cells: Drosophila S2 cells (Invitrogen expression system)
The test is described as follows: biochemical. The note with it: furin, Pyr-RTKR-AMC substrate, read-out: Ki.

Where [1] appears, read: optimization of the inhibitory peptides (Table 3).
[2] abbreviates: alanine scanning mutagenesis of the H5 furin cleavage sequence (Table 2).

T1 sequence (P09958 108-794 limits assumed): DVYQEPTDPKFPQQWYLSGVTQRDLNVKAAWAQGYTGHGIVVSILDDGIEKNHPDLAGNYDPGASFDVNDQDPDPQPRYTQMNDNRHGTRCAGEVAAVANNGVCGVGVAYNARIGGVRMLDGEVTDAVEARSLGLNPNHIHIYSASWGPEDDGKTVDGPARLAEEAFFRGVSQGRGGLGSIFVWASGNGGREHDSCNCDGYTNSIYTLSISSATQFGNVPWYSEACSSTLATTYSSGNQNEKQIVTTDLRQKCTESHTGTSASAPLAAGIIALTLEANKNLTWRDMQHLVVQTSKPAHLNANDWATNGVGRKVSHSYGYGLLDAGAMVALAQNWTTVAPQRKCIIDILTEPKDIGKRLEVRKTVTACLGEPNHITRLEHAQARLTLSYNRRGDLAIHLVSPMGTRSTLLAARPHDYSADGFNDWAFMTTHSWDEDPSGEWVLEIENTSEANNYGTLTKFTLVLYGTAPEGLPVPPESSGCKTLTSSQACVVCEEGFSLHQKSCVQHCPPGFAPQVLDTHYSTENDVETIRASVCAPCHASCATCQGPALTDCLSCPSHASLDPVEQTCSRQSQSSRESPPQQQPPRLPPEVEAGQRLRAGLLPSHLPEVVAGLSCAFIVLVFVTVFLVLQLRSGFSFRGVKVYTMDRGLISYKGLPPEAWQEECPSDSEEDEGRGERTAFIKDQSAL

`C[C@@H](O)[C@H](N)C(=O)N1CCC[C@H]1C(=O)N[C@@H](CCC(N)=O)C(=O)N[C@@H](CCCNC(=N)N)C(=O)N[C@@H](CC(N)=O)C(=O)N[C@@H](CCCNC(=N)N)C(=O)N[C@@H](CCCNC(=N)N)C(=O)N[C@@H](CCCNC(=N)N)C(=O)N[C@@H](CCCCN)C(=O)N[C@@H](CCCCN)C(=O)N[C@@H](CCCNC(=N)N)C(=O)NCC(N)=O` (H-TPQRNRRRKKRG-NH2): the Ki under setting [1] was over 0.1 µM.

For `C[C@@H](O)[C@H](N)C(=O)N1CCC[C@H]1C(=O)N[C@@H](CCC(N)=O)C(=O)N[C@@H](CCCNC(=N)N)C(=O)N1CCC[C@H]1C(=O)N[C@@H](CCCNC(=N)N)C(=O)N[C@@H](CCCNC(=N)N)C(=O)N[C@@H](CCCNC(=N)N)C(=O)N[C@@H](CCCCN)C(=O)N[C@@H](CCCCN)C(=O)N[C@@H](CCCNC(=N)N)C(=O)NCC(N)=O` (H-TPQRPRRRKKRG-NH2), the Ki under setting [1] is over 0.1 µM.

Take `C[C@@H](O)[C@H](N)C(=O)N1CCC[C@H]1C(=O)N[C@@H](CCC(N)=O)C(=O)N[C@@H](CCCNC(=N)N)C(=O)N[C@@H](CCC(N)=O)C(=O)N[C@@H](CCCNC(=N)N)C(=O)N[C@@H](CCCNC(=N)N)C(=O)N[C@@H](CCCNC(=N)N)C(=O)N[C@@H](CCCCN)C(=O)N[C@@H](CCCCN)C(=O)N[C@@H](CCCNC(=N)N)C(=O)NCC(N)=O` (H-TPQRQRRRKKRG-NH2): under setting [1], the Ki is over 0.1 µM. On the same count and under the same terms, the figure for `C[C@@H](O)[C@H](N)C(=O)N1CCC[C@H]1C(=O)N[C@@H](CCC(N)=O)C(=O)N[C@@H](CCCNC(=N)N)C(=O)N[C@@H](CO)C(=O)N[C@@H](CCCNC(=N)N)C(=O)N[C@@H](CCCNC(=N)N)C(=O)N[C@@H](CCCNC(=N)N)C(=O)N[C@@H](CCCCN)C(=O)N[C@@H](CCCCN)C(=O)N[C@@H](CCCNC(=N)N)C(=O)NCC(N)=O` (H-TPQRSRRRKKRG-NH2) is over 0.1 µM; for `C[C@@H](O)[C@H](N)C(=O)N1CCC[C@H]1C(=O)N[C@@H](CCC(N)=O)C(=O)N[C@@H](CCCNC(=N)N)C(=O)N[C@H](C(=O)N[C@@H](CCCNC(=N)N)C(=O)N[C@@H](CCCNC(=N)N)C(=O)N[C@@H](CCCNC(=N)N)C(=O)N[C@@H](CCCCN)C(=O)N[C@@H](CCCCN)C(=O)N[C@@H](CCCNC(=N)N)C(=O)NCC(N)=O)[C@@H](C)O` (H-TPQRTRRRKKRG-NH2) it is over 0.1 µM; for `CC(C)[C@H](NC(=O)[C@H](CCCNC(=N)N)NC(=O)[C@H](CCC(N)=O)NC(=O)[C@@H]1CCCN1C(=O)[C@@H](N)[C@@H](C)O)C(=O)N[C@@H](CCCNC(=N)N)C(=O)N[C@@H](CCCNC(=N)N)C(=O)N[C@@H](CCCNC(=N)N)C(=O)N[C@@H](CCCCN)C(=O)N[C@@H](CCCCN)C(=O)N[C@@H](CCCNC(=N)N)C(=O)NCC(N)=O` (H-TPQRVRRRKKRG-NH2) it is over 0.1 µM. On the same count and under the same terms, the figure for `C[C@@H](O)[C@H](N)C(=O)N1CCC[C@H]1C(=O)N[C@@H](CCC(N)=O)C(=O)N[C@@H](CCCNC(=N)N)C(=O)N[C@@H](Cc1c[nH]c2ccccc12)C(=O)N[C@@H](CCCNC(=N)N)C(=O)N[C@@H](CCCNC(=N)N)C(=O)N[C@@H](CCCNC(=N)N)C(=O)N[C@@H](CCCCN)C(=O)N[C@@H](CCCCN)C(=O)N[C@@H](CCCNC(=N)N)C(=O)NCC(N)=O` (H-TPQRWRRRKKRG-NH2) is over 0.1 µM; for `C[C@@H](O)[C@H](N)C(=O)N1CCC[C@H]1C(=O)N[C@@H](CCC(N)=O)C(=O)N[C@@H](CCCNC(=N)N)C(=O)N[C@@H](Cc1ccc(O)cc1)C(=O)N[C@@H](CCCNC(=N)N)C(=O)N[C@@H](CCCNC(=N)N)C(=O)N[C@@H](CCCNC(=N)N)C(=O)N[C@@H](CCCCN)C(=O)N[C@@H](CCCCN)C(=O)N[C@@H](CCCNC(=N)N)C(=O)NCC(N)=O` (H-TPQRYRRRKKRG-NH2) it is over 0.1 µM. Turning to `C[C@H](NC(=O)[C@H](C)NC(=O)[C@H](CCCNC(=N)N)NC(=O)[C@@H]1CCCN1C(=O)[C@@H](N)[C@@H](C)O)C(=O)N[C@@H](CCCNC(=N)N)C(=O)N[C@@H](CCCNC(=N)N)C(=O)N[C@@H](CCCCN)C(=O)N[C@@H](CCCCN)C(=O)N[C@@H](CCCNC(=N)N)C(N)=O` (H-TPRAARRKKR-NH2), the Ki under setting [2] is over 0.1 µM. On to `C[C@H](NC(=O)[C@H](C)NC(=O)[C@H](CCCNC(=N)N)NC(=O)[C@@H]1CCCN1C(=O)[C@@H](N)[C@@H](C)O)C(=O)N[C@@H](CCCNC(=N)N)C(=O)N[C@@H](CCCNC(=N)N)C(=O)N[C@@H](CCCCN)C(=O)N[C@@H](CCCCN)C(=O)N[C@@H](CCCNC(=N)N)C(=O)NCC(N)=O` (H-TPRAARRKKRG-NH2), for which the Ki under setting [2] was over 0.1 µM.

As for `CC(C)[C@H](NC(=O)[C@H](CCCNC(=N)N)NC(=O)[C@H](CCCCN)NC(=O)[C@H](CCCCN)NC(=O)[C@H](CCCNC(=N)N)NC(=O)[C@H](CCCNC(=N)N)NC(=O)[C@H](C)NC(=O)[C@H](C)NC(=O)[C@H](CCCNC(=N)N)NC(=O)[C@@H]1CCCN1C(=O)[C@@H](N)[C@@H](C)O)C(N)=O` (H-TPRAARRKKRV-NH2), the Ki under setting [2] is over 0.1 µM. Same read-out and setting: the value for `C[C@H](NC(=O)[C@H](C)NC(=O)[C@H](CCCNC(=N)N)NC(=O)[C@@H]1CCCN1C(=O)[C@@H](N)[C@@H](C)O)C(=O)N[C@@H](CCCNC(=N)N)C(=O)N[C@@H](CCCNC(=N)N)C(=O)N[C@@H](CCCCN)C(=O)N[C@@H](CCCCN)C(=O)N[C@@H](CCCNC(=N)N)C(=O)N(C)CC(N)=O` (H-TPRAARRKKR[Sar]-NH2) was over 0.1 µM.

As for `C[C@H](NC(=O)[C@H](C)NC(=O)[C@H](CCC(=O)O)NC(=O)[C@H](CCCNC(=N)N)NC(=O)[C@@H]1CCCN1C(=O)[C@@H](N)[C@@H](C)O)C(=O)N[C@@H](C)C(=O)N[C@@H](CCCCN)C(=O)N[C@@H](CCCCN)C(=O)N[C@@H](CCCNC(=N)N)C(N)=O` (H-TPREAAAKKR-NH2), under setting [2], the Ki was over 0.1 µM.

Take `C[C@H](NC(=O)[C@H](C)NC(=O)[C@H](CCC(=O)O)NC(=O)[C@H](CCCNC(=N)N)NC(=O)[C@@H]1CCCN1C(=O)[C@@H](N)[C@@H](C)O)C(=O)N[C@@H](C)C(=O)N[C@@H](CCCCN)C(=O)N[C@@H](CCCCN)C(=O)N[C@@H](CCCNC(=N)N)C(=O)NCC(N)=O` (H-TPREAAAKKRG-NH2): the inhibition constant Ki under setting [2] is over 0.1 µM. On the same count and under the same terms, the figure for `CC(C)[C@H](NC(=O)[C@H](CCCNC(=N)N)NC(=O)[C@H](CCCCN)NC(=O)[C@H](CCCCN)NC(=O)[C@H](C)NC(=O)[C@H](C)NC(=O)[C@H](C)NC(=O)[C@H](CCC(=O)O)NC(=O)[C@H](CCCNC(=N)N)NC(=O)[C@@H]1CCCN1C(=O)[C@@H](N)[C@@H](C)O)C(N)=O` (H-TPREAAAKKRV-NH2) is over 0.1 µM. The same measure, in the same setting: the value for `C[C@H](NC(=O)[C@H](C)NC(=O)[C@H](CCC(=O)O)NC(=O)[C@H](CCCNC(=N)N)NC(=O)[C@@H]1CCCN1C(=O)[C@@H](N)[C@@H](C)O)C(=O)N[C@@H](C)C(=O)N[C@@H](CCCCN)C(=O)N[C@@H](CCCCN)C(=O)N[C@@H](CCCNC(=N)N)C(=O)N(C)CC(N)=O` (H-TPREAAAKKR[Sar]-NH2) was over 0.1 µM; that for `C[C@H](NC(=O)[C@H](C)NC(=O)[C@H](CCC(=O)O)NC(=O)[C@H](CCCNC(=N)N)NC(=O)[C@@H]1CCCN1C(=O)[C@@H](N)[C@@H](C)O)C(=O)N[C@@H](CCCNC(=N)N)C(=O)N[C@@H](CCCCN)C(=O)N[C@@H](CCCCN)C(=O)N[C@@H](CCCNC(=N)N)C(N)=O` (H-TPREAARKKR-NH2) was over 0.1 µM. In the case of `C[C@H](NC(=O)[C@H](C)NC(=O)[C@H](CCC(=O)O)NC(=O)[C@H](CCCNC(=N)N)NC(=O)[C@@H]1CCCN1C(=O)[C@@H](N)[C@@H](C)O)C(=O)N[C@@H](CCCNC(=N)N)C(=O)N[C@@H](CCCCN)C(=O)N[C@@H](CCCCN)C(=O)N[C@@H](CCCNC(=N)N)C(=O)NCC(N)=O` (H-TPREAARKKRG-NH2), under setting [2], the Ki is over 0.1 µM. For `CC(C)[C@H](NC(=O)[C@H](CCCNC(=N)N)NC(=O)[C@H](CCCCN)NC(=O)[C@H](CCCCN)NC(=O)[C@H](CCCNC(=N)N)NC(=O)[C@H](C)NC(=O)[C@H](C)NC(=O)[C@H](CCC(=O)O)NC(=O)[C@H](CCCNC(=N)N)NC(=O)[C@@H]1CCCN1C(=O)[C@@H](N)[C@@H](C)O)C(N)=O` (H-TPREAARKKRV-NH2), the Ki under setting [2] was over 0.1 µM. On the same count and under the same terms, the figure for `C[C@H](NC(=O)[C@H](C)NC(=O)[C@H](CCC(=O)O)NC(=O)[C@H](CCCNC(=N)N)NC(=O)[C@@H]1CCCN1C(=O)[C@@H](N)[C@@H](C)O)C(=O)N[C@@H](CCCNC(=N)N)C(=O)N[C@@H](CCCCN)C(=O)N[C@@H](CCCCN)C(=O)N[C@@H](CCCNC(=N)N)C(=O)N(C)CC(N)=O` (H-TPREAARKKR[Sar]-NH2) is over 0.1 µM; for `C[C@H](NC(=O)[C@H](CCC(=O)O)NC(=O)[C@H](CCCNC(=N)N)NC(=O)[C@@H]1CCCN1C(=O)[C@@H](N)[C@@H](C)O)C(=O)N[C@@H](CCCNC(=N)N)C(=O)N[C@@H](CCCNC(=N)N)C(=O)N[C@@H](CCCCN)C(=O)N[C@@H](CCCCN)C(=O)N[C@@H](CCCNC(=N)N)C(N)=O` (H-TPREARRKKR-NH2) it is over 0.1 µM; for `CC(C)[C@H](NC(=O)[C@H](CCCNC(=N)N)NC(=O)[C@H](CCCCN)NC(=O)[C@H](CCCCN)NC(=O)[C@H](CCCNC(=N)N)NC(=O)[C@H](CCCNC(=N)N)NC(=O)[C@H](C)NC(=O)[C@H](CCC(=O)O)NC(=O)[C@H](CCCNC(=N)N)NC(=O)[C@@H]1CCCN1C(=O)[C@@H](N)[C@@H](C)O)C(N)=O` (H-TPREARRKKRV-NH2) it is over 0.1 µM. Still for that read-out and setting: the value for `C[C@H](NC(=O)[C@H](CCC(=O)O)NC(=O)[C@H](CCCNC(=N)N)NC(=O)[C@@H]1CCCN1C(=O)[C@@H](N)[C@@H](C)O)C(=O)N[C@@H](CCCNC(=N)N)C(=O)N[C@@H](CCCNC(=N)N)C(=O)N[C@@H](CCCCN)C(=O)N[C@@H](CCCCN)C(=O)N[C@@H](CCCNC(=N)N)C(=O)N(C)CC(N)=O` (H-TPREARRKKR[Sar]-NH2) was over 0.1 µM; that for `C[C@H](NC(=O)[C@H](C)NC(=O)[C@H](CCCNC(=N)N)NC(=O)[C@H](CCC(=O)O)NC(=O)[C@H](CCCNC(=N)N)NC(=O)[C@@H]1CCCN1C(=O)[C@@H](N)[C@@H](C)O)C(=O)N[C@@H](CCCCN)C(=O)N[C@@H](CCCCN)C(=O)N[C@@H](CCCNC(=N)N)C(N)=O` (H-TPRERAAKKR-NH2) was over 0.1 µM. In the case of `C[C@H](NC(=O)[C@H](C)NC(=O)[C@H](CCCNC(=N)N)NC(=O)[C@H](CCC(=O)O)NC(=O)[C@H](CCCNC(=N)N)NC(=O)[C@@H]1CCCN1C(=O)[C@@H](N)[C@@H](C)O)C(=O)N[C@@H](CCCCN)C(=O)N[C@@H](CCCCN)C(=O)N[C@@H](CCCNC(=N)N)C(=O)NCC(N)=O` (H-TPRERAAKKRG-NH2), under setting [2], the Ki is over 0.1 µM.

These data come from US8053553B2, “Targeting host proteinases as a therapeutic strategy against viral and bacterial pathogens” (Socpra Sciences Sante Et Humaines, priority 2007, dated 2011).
